Where “and” joins values, the source holds several entries; their conditions need not be identical. Identical values can stand only once. Toxic doses and inconclusive results are not listed.
Tested on: P388 leukemia ip, CD2F1 mice, survival T/C
Assay: NCI In Vivo Anticancer Drug Screen. Data for tumor model P388 Leukemia (intraperitoneal) in CD2F1 (CDF1) mice
Conditions: endpoint: median survival time, higher = longer survival
Summary of the method: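 Mice carrying the transplanted tumor received test compound or vehicle. Survival was recorded in each group, and the value is the treated-group measurement divided by that of the vehicle-treated control group.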

[1] = dose: 60.0 mg/kg/injection, schedule: Q01DX005 (ip), vehicle: Klucel (hydroxypropylcellulose) (HPC)
[2] = dose: 6.25 mg/kg/injection, schedule: Q01DX005 (ip), vehicle: saline with Tween-80
[3] = dose: 12.5 mg/kg/injection, schedule: Q01DX005 (ip), vehicle: saline with Tween-80
[4] = dose: 50.0 mg/kg/injection, schedule: Q01DX005 (ip), vehicle: saline with Tween-80
[5] = dose: 100.0 mg/kg/injection, schedule: Q01DX005 (ip), vehicle: saline with Tween-80
[6] = dose: 200.0 mg/kg/injection, schedule: Q01DX005 (ip), vehicle: saline with Tween-80
[7] = dose: 50.0 mg/kg/injection, schedule: Q01DX009 (ip), vehicle: other
[8] = dose: 100.0 mg/kg/injection, schedule: Q01DX009 (ip), vehicle: other
[9] = dose: 200.0 mg/kg/injection, schedule: Q01DX009 (ip), vehicle: other
[10] = dose: 50.0 mg/kg/injection, schedule: Q01DX009 (ip), vehicle: Klucel (hydroxypropylcellulose) (HPC)
[11] = dose: 100.0 mg/kg/injection, schedule: Q01DX009 (ip), vehicle: Klucel (hydroxypropylcellulose) (HPC)
[12] = dose: 200.0 mg/kg/injection, schedule: Q01DX009 (ip), vehicle: Klucel (hydroxypropylcellulose) (HPC)
[13] = dose: 60.0 mg/kg/injection, schedule: Q01DX005 (ip), vehicle: saline with Tween-80
[14] = dose: 120.0 mg/kg/injection, schedule: Q01DX005 (ip), vehicle: saline with Tween-80

CCc1nc(N)nc(N)c1-c1ccc(Cl)c(N=[N+]=[N-])c1
T/C (dose: 3.13 mg/kg/injection, schedule: Q01DX009 (ip), vehicle: distilled water + Tween-80): 99 % of control | T/C (dose: 6.25 mg/kg/injection, schedule: Q01DX009 (ip), vehicle: distilled water + Tween-80): 102 % of control | T/C (dose: 12.5 mg/kg/injection, schedule: Q01DX009 (ip), vehicle: distilled water + Tween-80): 107 % of control | T/C (dose: 15.0 mg/kg/injection, schedule: Q01DX005 (ip), vehicle: Klucel (hydroxypropylcellulose) (HPC)): 100 % of control | T/C (dose: 25.0 mg/kg/injection, schedule: Q01DX009 (ip), vehicle: distilled water + Tween-80): 110 % of control and 89 % of control | T/C (dose: 30.0 mg/kg/injection, schedule: Q01DX005 (ip), vehicle: Klucel (hydroxypropylcellulose) (HPC)): 108 % of control | T/C (dose: 50.0 mg/kg/injection, schedule: Q01DX009 (ip), vehicle: distilled water + Tween-80): 109 % of control | T/C [1]: 106 % of control and 116 % of control | T/C (dose: 200.0 mg/kg/injection, schedule: Q01DX009 (ip), vehicle: distilled water + Tween-80): 151 % of control

COC(=O)NC(=O)CCC(=O)O
T/C (dose: 12.5 mg/kg/injection, schedule: Q01DX009 (ip), vehicle: saline): 104 % of control | T/C (dose: 25.0 mg/kg/injection, schedule: Q01DX009 (ip), vehicle: saline): 97 % of control | T/C (dose: 50.0 mg/kg/injection, schedule: Q01DX009 (ip), vehicle: saline): 100 % of control and 103 % of control

O=C(NNC(=S)Nc1ccccc1)c1ccncc1
T/C (dose: 50.0 mg/kg/injection, schedule: Q01DX009 (ip), vehicle: saline with Tween-80): 107 % of control | T/C (dose: 100.0 mg/kg/injection, schedule: Q01DX009 (ip), vehicle: saline with Tween-80): 107 % of control | T/C (dose: 200.0 mg/kg/injection, schedule: Q01DX009 (ip), vehicle: saline with Tween-80): 107 % of control

Cc1cc([N+](=O)[O-])c(S(N)(=O)=O)c([N+](=O)[O-])c1
T/C (dose: 3.13 mg/kg/injection, schedule: Q01DX009 (ip), vehicle: water): 96 % of control | T/C (dose: 6.25 mg/kg/injection, schedule: Q01DX009 (ip), vehicle: water): 96 % of control | T/C (dose: 12.5 mg/kg/injection, schedule: Q01DX009 (ip), vehicle: water): 99 % of control | T/C (dose: 25.0 mg/kg/injection, schedule: Q01DX009 (ip), vehicle: water): 97 % of control | T/C (dose: 50.0 mg/kg/injection, schedule: Q01DX009 (ip), vehicle: water): 98 % of control

CCCC1(c2ccccc2)CC(=O)NC1=O (centres undefined)
T/C (dose: 60.0 mg/kg/injection, schedule: Q01DX005 (ip), vehicle: saline): 98 % of control | T/C (dose: 120.0 mg/kg/injection, schedule: Q01DX005 (ip), vehicle: saline): 98 % of control | T/C (dose: 240.0 mg/kg/injection, schedule: Q01DX005 (ip), vehicle: saline): 102 % of control

CC(=O)OC(CC=C(C)C)C1=CC(=O)c2c(O)ccc(O)c2C1=O (centres undefined)
T/C [2]: 109 % of control | T/C [3]: 109 % of control

COC(=O)C1=COC(C)C2CN3CCc4c([nH]c5cc(OC)ccc45)C3CC12 (centres undefined)
T/C [4]: 91 % of control | T/C [5]: 109 % of control | T/C [6]: 109 % of control

COc1ccc2c(c1)CSCC2O (centres undefined)
T/C [7]: 95 % of control | T/C [8]: 100 % of control | T/C [9]: 96 % of control

O=NNc1ccncc1
T/C (dose: 6.25 mg/kg/injection, schedule: Q01DX005 (ip), vehicle: saline): 109 % of control | T/C (dose: 12.5 mg/kg/injection, schedule: Q01DX005 (ip), vehicle: saline): 122 % of control | T/C (dose: 25.0 mg/kg/injection, schedule: Q01DX005 (ip), vehicle: saline): 120 % of control

CN1CCc2cc3c4cc2C1Cc1ccc(O)c(c1)Oc1ccc(cc1)CC1c2c(cc(O)c(c2O4)O3)CCN1C (centres undefined)
T/C (dose: 0.25 mg/kg/injection, schedule: Q01DX009 (ip), vehicle: saline): 103 % of control | T/C (dose: 0.5 mg/kg/injection, schedule: Q01DX009 (ip), vehicle: saline): 110 % of control | T/C (dose: 1.0 mg/kg/injection, schedule: Q01DX009 (ip), vehicle: saline): 103 % of control | T/C (dose: 2.0 mg/kg/injection, schedule: Q01DX009 (ip), vehicle: saline): 100 % of control | T/C (dose: 4.0 mg/kg/injection, schedule: Q01DX009 (ip), vehicle: saline): 94 % of control

O=C1C2=Cc3ccccc3CN2Cc2ccccc21
T/C (dose: 18.75 mg/kg/injection, schedule: Q01DX009 (ip), vehicle: saline with Tween-80): 111 % of control | T/C (dose: 37.5 mg/kg/injection, schedule: Q01DX009 (ip), vehicle: saline with Tween-80): 90 % of control

CC(=O)N1C(=O)CC23c4cccc([N+](=O)[O-])c4C(=O)N2CCCN13 (centres undefined)
T/C [1]: 97 % of control | T/C (dose: 120.0 mg/kg/injection, schedule: Q01DX005 (ip), vehicle: Klucel (hydroxypropylcellulose) (HPC)): 97 % of control | T/C (dose: 240.0 mg/kg/injection, schedule: Q01DX005 (ip), vehicle: Klucel (hydroxypropylcellulose) (HPC)): 91 % of control

OCC1c2ccc(Cl)cc2Nc2ccc(Cl)cc21 (centres undefined)
T/C (dose: 100.0 mg/kg/injection, schedule: Q01DX001 (ip), vehicle: saline with Tween-80): 104 % of control | T/C (dose: 200.0 mg/kg/injection, schedule: Q01DX001 (ip), vehicle: saline with Tween-80): 95 % of control | T/C (dose: 400.0 mg/kg/injection, schedule: Q01DX001 (ip), vehicle: saline with Tween-80): 100 % of control

COC(=O)/C(=C\C[C@@H]1CCCC[C@H]1O)CC[Se]c1ccccc1
T/C (dose: 50.0 mg/kg/injection, schedule: Q01DX009 (ip), vehicle: distilled water + Tween-80 + alcohol): 108 % of control | T/C (dose: 100.0 mg/kg/injection, schedule: Q01DX009 (ip), vehicle: distilled water + Tween-80 + alcohol): 103 % of control | T/C (dose: 200.0 mg/kg/injection, schedule: Q01DX009 (ip), vehicle: distilled water + Tween-80 + alcohol): 98 % of control

FC(F)(F)S.[Ag]
T/C (dose: 12.5 mg/kg/injection, schedule: Q01DX009 (ip), vehicle: saline with Tween-80): 107 % of control | T/C (dose: 25.0 mg/kg/injection, schedule: Q01DX009 (ip), vehicle: saline with Tween-80): 116 % of control

Cc1cc2c(c(=O)o1)C1=S(SC(c3ccccc3)=C1)S2 (centres undefined)
T/C (dose: 100.0 mg/kg/injection, schedule: Q04DX002 (ip), vehicle: saline with Tween-80): 90 % of control | T/C (dose: 200.0 mg/kg/injection, schedule: Q04DX002 (ip), vehicle: saline with Tween-80): 99 % of control | T/C (dose: 400.0 mg/kg/injection, schedule: Q04DX002 (ip), vehicle: saline with Tween-80): 105 % of control

CC1(C)C(C(N)=O)C(=O)NC(=O)C1C(N)=O (centres undefined)
T/C (dose: 25.0 mg/kg/injection, schedule: Q01DX009 (ip), vehicle: other): 100 % of control | T/C [7]: 100 % of control | T/C [8]: 99 % of control | T/C [9]: 100 % of control | T/C (dose: 400.0 mg/kg/injection, schedule: Q01DX009 (ip), vehicle: other): 105 % of control

C/C(=N/N(C)C)c1ccncc1
T/C [10]: 104 % of control | T/C [11]: 107 % of control | T/C [12]: 113 % of control

CNC(C)Cc1ccccc1 (centres undefined) (tested in a mixture with another compound)
T/C [2]: 112 % of control | T/C [3]: 103 % of control | T/C (dose: 25.0 mg/kg/injection, schedule: Q01DX005 (ip), vehicle: saline with Tween-80): 104 % of control | T/C [4]: 116 % of control

Cc1nn(C23CC4CC(CC(C4)C2)C3)c(C(Cl)Cl)c1Cl
T/C [13]: 100 % of control | T/C [14]: 94 % of control | T/C (dose: 240.0 mg/kg/injection, schedule: Q01DX005 (ip), vehicle: saline with Tween-80): 94 % of control

O=C1CC2(CCCC2)C(=O)N1c1ccc(O)c(CN2CCCCC2)c1
T/C [10]: 99 % of control | T/C [11]: 104 % of control | T/C [12]: 98 % of control

O=c1c2ccccc2c(=O)c2c1ccc1[nH]c3c(ccc4c(=O)c5ccccc5c(=O)c43)[nH]c12
T/C [4]: 95 % of control | T/C [5]: 107 % of control | T/C [6]: 104 % of control

COc1ccc(CCn2cnn3c(=O)c4ccccc4nc3c2=O)cc1OC
T/C [13]: 99 % of control | T/C [14]: 92 % of control

CCOC(=O)C1(C)Sc2ccccc2N=C1c1ccccc1 (centres undefined)
T/C (dose: 60.0 mg/kg/injection, schedule: Q01DX005 (ip), vehicle: saline + Tween-80 + alcohol): 98 % of control | T/C (dose: 120.0 mg/kg/injection, schedule: Q01DX005 (ip), vehicle: saline + Tween-80 + alcohol): 93 % of control | T/C (dose: 240.0 mg/kg/injection, schedule: Q01DX005 (ip), vehicle: saline + Tween-80 + alcohol): 89 % of control

CCCCCCCCCCCC(=O)C(=O)c1ccc(O)cc1O
T/C [10]: 110 % of control | T/C [11]: 107 % of control | T/C [12]: 109 % of control

Source: PubChem BioAssay AID330 (DTP/NCI, 2004)
